Test results from US7312248B2, “Control of parasites in animals by the use of novel trifluoromethanesulfonanilide oxime ether derivatives” (Schering-Plough Animal Health Corporation, priority 2004, dated 2007).
Like-named read-outs stand apart in the source and are kept apart here.

Key:
Format in all cases: in vivo
[1] = tested on: cat flea (Ctenocephalides felis); test: whole plant or invertebrate; settings: Ctenocephalides felis
Outline: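 Single-dose screen at 1.26 μg/cm^2: acetone solution dried for 24 h on a Coatasil-treated 159 mm^2 flask base, then 15 adult cat fleas aged 3-7 days per flask, four or more replicates, acetone control. Percent dead, meaning not moving or unable to right themselves, recorded after 8, 24 and/or 48 h at 25 °C and 75% RH.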

[2] = tested on: cat flea (Ctenocephalides felis); test: Ctenocephalides felis adulticide assay: dose response (LC50)
Outline: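 Groups of 15 adult cat fleas, 3–7 days post-emergence, were exposed for 24 h at 25° C and 75% humidity to glass flask bases coated with six serial doses in acetone and dried for 24 h. Mortality was scored at 8 and 24 h, and LC50 was the surface-treatment concentration killing 50%.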

[3] = tested on: Brown Dog Tick (Rhipicephalus sanguineus); test: Rapid screening protocol for topical application on brown dog ticks; settings: 48 h; Laboratory 2 F data
Method: d) Rapid Screening Protocol for Topical Application on Brown Dog Ticks (Rhipicephalus sanguineus)
The aim of the test was to determine the presence of significant acaricidal activity in sample compounds or formulations when applied topically on brown dog ticks. A tick was defined as dead if it gave no apparent response when touched lightly and observed for 1 minute. […] Both permethrin and fipronil were employed as reference compounds. The insect species tested was the Brown Dog Tick (Rhipicephalus sanguineus). Mixed sex adult ticks were used for tests. The strain used was cultured by von Berky Veterinary Services, Woody Point, QLD, AU and supplied as unfed adult ticks (mixed sex). Ticks were maintained in controlled conditions (temp. 18°+2° C., humidity 75±5% RH).
Temperature was maintained at 25±1° C. and the humidity was ambient. […] Ticks were each treated on the abdomen with 1 μL of a single dose level of test sample in acetone; ten ticks were treated with solvent only (acetone) in each test. Tests were replicated 4 times (total of 40 ticks treated). […]

[4] = tested on: Brown Dog Tick (Rhipicephalus sanguineus); test: Dose response protocol for topical application on brown dog ticks (LD50); settings: 24 h mortality
Method: e) Dose response protocol for topical application on brown dog ticks (Rhipicephalus sanguineus): The test determines the level of insecticidal activity of sample compounds or formulations when applied topically on brown dog ticks. Sample compounds were stored prior to use in a freezer (−5±1° C.), unless otherwise specified.
• Mortality: A tick is defined as dead after it gives no apparent response when touched lightly or gently breathed upon, while observed for 30 seconds. • LD50 (Lethal Dose 50): The dose of a topically applied treatment at which 50% of the dog ticks are killed. • Reference compound: To assess an experimental compound for significant acaricidal activity a single dose level is chosen, which is based upon known results from previous experiments using a commercially available active i.e., a reference compound. The reference compound selected is one in common use, and one that has a similar mode of action against the Brown Dog Tick (i.e., the test species). • Recovery container: A recovery container consists of a 500 ml round plastic container measuring 115 mm diameter and 70 mm height, with a tight fitting lid that has 10 small (˜1 mm) holes inserted for air exchange. A 90 mm diameter piece of filter paper was placed on the bottom of the container and moistened with 1 mL of de-stilled water.
Adult, mixed sex, Brown Dog Ticks (Rhipicephalus sanguineus) were reared as follows: (i) cultured, (ii) transferred unfed, to a testing laboratory, and (iii) then maintained under controlled conditions (i.e., temp. 18°±2° C., humidity 75±5% RH). The ticks used were selected for vigor prior to testing, i.e., capable of actively walking and responsive to being touched or gently breathed upon.
During the testing, the temperature was maintained at 25±1° C., and the humidity was ambient. Seven dose levels (concentrations) of sample compound, in the form of serial dilutions in acetone, were derived from a pilot study and covered a range that produced very low to very high mortality. Groups of ten ticks were treated topically (on the abdomen) with 1 μL of a single dose level of the sample compound. Each test was replicated four times, i.e., employing a total of 40 ticks per dose level of each sample compound. As a control, ten ticks were treated with solvent only (acetone) for each test. Following the treatment, the ticks were held in recovery containers maintained under appropriate rearing conditions for 24 hours. Mortality resulting from the treatments was recorded at 24 hours. […] Press, London (1971).]

[5] = tested on: Haemonchus contortus; test: Haemonchus contortus larvacidal (larval development) assay; settings: 144 h, read-out: Haemonchus contortus LD99
Outline: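 Nematode eggs placed on agar containing compound (12 two-fold dilutions, final 0.024–50 μg/ml) and left 6 days to develop to L3. LD99 is the lowest concentration inhibiting development of 99% of larvae, derived from well titre (2^n−1) and top concentration.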

[6] = 8 h, read-out: C. felis Mortality (%) 8 h, 8 h, Laboratory 2 B data
[7] = 24 h, read-out: C. felis Mortality (%) 24 h, 24 h, Laboratory 2 B data
[8] = 24 h, read-out: C. felis Mortality (%) 24 h, 24 h, Laboratory 1 A data
[9] = 48 h, read-out: C. felis Mortality (%) 48 h, 48 h, Laboratory 2 B data

SMILES | mortality at 1.26 µg/cm2, 1.26 µg/cm2 [1, 6] [%] | mortality at 1.26 µg/cm2, 1.26 µg/cm2 [1, 7] [%] | C. felis LC50 ([2]; Laboratory 2 D data) | R. sanguineus Mortality (%) 48 h [3] [%] | R. sanguineus LD50 [4] [μg/tick] | IC99 [5] [µg/mL] | mortality at 1.26 µg/cm2, 1.26 µg/cm2 [1, 8] [%] | C. felis LC50 ([2]; Laboratory 1 C data) [μg/cm^2] | mortality at 1.26 µg/cm2, 1.26 µg/cm2 [1, 9] [%]
CC(C)ON=C(c1cc(Cl)ccc1NS(=O)(=O)C(F)(F)F)C1CCCCC1 (racemic) [Compound 210, N-[4-chloro-2-(cyclohexylisopropoxyiminomethyl)phenyl]trifluoromethanesulfonamide] | 66 | 100 | 0.1^D μg/cm^2 | 100 | 2.7 |  |  |  | 
C/C(=N\Oc1ccc(F)cc1)c1cc(Cl)ccc1NS(=O)(=O)C(F)(F)F [Compound 129, N-{4-chloro-2-[1-(4-fluorophenoxyimino)ethyl]phenyl}trifluoromethanesulfonamide] |  |  | 0.02 μg/cm^2 |  | 1.3 | 1.9 | 100 | 0.05 | 
CC/C(=N\OC1CCCC1)c1cc(Cl)ccc1NS(=O)(=O)C(F)(F)F [Compound 155] |  |  | 0.02 μg/cm^2 | 92 | 1.5 |  | 100 | 0.2 | 
C=CCO/N=C(\CC)c1cc(Cl)ccc1NS(=O)(=O)C(F)(F)F [Compound 156, N-[2-(1-allyloxyiminopropyl)-4-chlorophenyl]trifluoromethanesulfonamide] |  |  | 0.02 μg/cm^2 | 95 | 0.6 |  | 100 | 0.4 | 
COCCO/N=C(\C)c1cc(Cl)ccc1NS(=O)(=O)C(F)(F)F [Compound 185, N-{4-chloro-2-[1-(2-methoxyethoxyimino)ethyl]phenyl}trifluoromethanesulfonamide] | 100 | 100 | 0.01 μg/cm^2 | 100 | 0.7 |  |  | 0.2 | 
C/C(=N\OCC(F)(F)F)c1cc(Cl)ccc1NS(=O)(=O)C(F)(F)F [Compound 186] | 100 | 100 | 0.006 μg/cm^2 | 100 | 0.9 |  |  | 0.1 | 
C/C(=N\OCC1CC1)c1cc(Cl)ccc1NS(=O)(=O)C(F)(F)F [Compound 187, N-[4-chloro-2-(1-cyclopropylmethoxyiminoethyl)phenyl]trifluoromethanesulfonamide] | 100 | 100 | 0.005 μg/cm^2 | 100 | 1.0 |  |  | 0.1 | 
C/C(=N\OCC1CCCC1)c1cc(Cl)ccc1NS(=O)(=O)C(F)(F)F [Compound 189] | 91 | 97 | 0.01^D μg/cm^2 | 100 | 2.2 |  |  |  | 
CCC/C(=N\OCC)c1cc(Cl)ccc1NS(=O)(=O)C(F)(F)F [Compound 193, N-[4-chloro-2-(1-ethoxyiminobutyl)phenyl]trifluoromethanesulfonamide] | 88 | 100 | 0.01^D μg/cm^2 | 95 | 1.2 |  |  |  | 
C/C(=N\OCc1ccc(Cl)s1)c1cc(Cl)ccc1NS(=O)(=O)C(F)(F)F [Compound 194, N-{4-chloro-2-[1-(5-chlorothiophen-2-ylmethoxyimino)ethyl]phenyl}trifluoromethanesulfonamide] | 100 | 100 | 0.02^D μg/cm^2 | 100 | 2.0 |  |  |  | 
CC/C(=N\OCC1CC1)c1cc(Cl)ccc1NS(=O)(=O)C(F)(F)F [Compound 196, N-[4-chloro-2-(1-cyclopropylmethoxyiminopropyl)phenyl]trifluoromethanesulfonamide] | 96 | 100 | 0.008^D μg/cm^2 | 100 | 1.2 |  |  |  | 
C#CCO/N=C(\C)c1cc(Cl)ccc1NS(=O)(=O)C(F)(F)F [Compound 202] | 100 | 100 | 0.01^D μg/cm^2 | 100 | 0.9 |  |  |  | 
C/C(=N\OC(C)C)c1ccc(C(F)(F)F)cc1NS(=O)(=O)C(F)(F)F [Compound 235] |  | 100 | 0.2^D μg/cm^2 |  | 2.3 |  |  |  | 100
C=CCO/N=C(\C)c1ccc(C(F)(F)F)cc1NS(=O)(=O)C(F)(F)F [Compound 241, N-[2-(1-allyloxyiminoethyl)-5-trifluoromethylphenyl]trifluoromethanesulfonamide] |  | 100 | 0.1^D μg/cm^2 |  | 1.9 |  |  |  | 100
CCC(C)O/N=C(\C)c1cc(Cl)ccc1NS(=O)(=O)C(F)(F)F (stereo not drawn) [Compound 242] |  | 100 | 0.1^D μg/cm^2 |  | 3.1 |  |  |  | 100
CC/C(=N\OC(C)CC)c1cc(Cl)ccc1NS(=O)(=O)C(F)(F)F (stereo not drawn) [Compound 243] |  | 100 | 0.1^D μg/cm^2 |  | 3.8 |  |  |  | 100
CCCCO/N=C(\C)c1cc(Cl)ccc1NS(=O)(=O)C(F)(F)F [Compound 244] |  | 100 | 0.07^D μg/cm^2 |  | 3.0 |  |  |  | 100
CCCCO/N=C(\CC)c1cc(Cl)ccc1NS(=O)(=O)C(F)(F)F [Compound 245] |  | 100 | 0.09^D μg/cm^2 |  | 3.9 |  |  |  | 100
CC/C(=N\OCCC(C)C)c1cc(Cl)ccc1NS(=O)(=O)C(F)(F)F [Compound 247] |  | 100 | 0.1^D μg/cm^2 |  | 4.6 |  |  |  | 100
CC(C)=CCO/N=C(\C)c1cc(Cl)ccc1NS(=O)(=O)C(F)(F)F [Compound 249] |  | 100 | 1.3^D μg/cm^2 |  | 3.3 |  |  |  | 100
C/C(=N\OC(C)C1CC1)c1cc(Cl)ccc1NS(=O)(=O)C(F)(F)F (stereo not drawn) [Compound 253] |  | 100 | 1.2^D μg/cm^2 |  | 3.4 |  |  |  | 100
